Experimental data from US7927811B2, “Polypeptides having brain-localizing activity and uses thereof” (Proteus Sciences Co., Ltd., priority 2003, dated 2011).

Test system: mouse brain tissues (cerebral parenchyma)
Experiment: Brain-localizing peptide conjugates bound to gold colloids administered to mice; transmission electron microscopy of brain tissue sections
Assay type: in vivo
Conditions: biotin-conjugated peptide + avidin-gold particles administered to mice; electron micrographs, hippocampal pyramidal cells and cerebellar Purkinje cell region
Text: The present inventors produced brain-localizing peptide conjugates. The conjugates are molecules that can have a cyclic structure due to the formation of a disulfide bond between cysteine residues in a peptide molecule of the present invention, and may also have biotin attached to them. The conjugates have affinity to avidin compounds.
The conjugates were bound to gold colloids and administered to mice, and the mice were subjected to experiments that evaluate the brain-localizing activity of the peptides of the present invention (observation of brain tissue sections under a transmission electron microscope).
[Section Preparation] • (i) trimming • (ii) preparation of thick sections (2 to 3 μm thick) using a glass knife • (iii) preparation of ultra-thin sections (50 to 100 nm thick) using a diamond knife • (iv) electron staining: 2% uranium acetate and then 1% lead citrate (3 minutes each) • (v) transmission electron microscope observation (acceleration voltage of 80 kV)
In the present experiment, T2J002 (SEQ ID NO: 2) and T2J004 (SEQ ID NO: 4) were used as peptides of the present invention. The arrows show positions of the gold particle-bound peptide molecules of the present invention. […] More specifically, the peptides of the present invention were confirmed to have brain-localizing activity.

Sequence | transport of gold colloids into the cerebral parenchyma (brain-localizing activity)
CSLNTRSQC [T2J002] | successfully transport the gold colloids into the cerebral parenchyma
CVVRHLQQC [T2J004] | successfully transport the gold colloids into the cerebral parenchyma
